In PMC12355554, “Development of novel mitochondrial pyruvate carrier inhibitors for breast cancer treatment” (The Journal of Biological Chemistry, 2025):

Key:
67NR tumor = assay: Tumor efficacy study in a 67NR syngraft; conditions: 14-day treatment
[1] = system: MPC1 and MPC2 KO 4T1 cells; assay: Pyr-driven respiration in CRISPR-Cas9 MPC1/MPC2 KO 4T1 cells; conditions: permeabilized MPC1/MPC2 KO 4T1 cells, FCCP stimulated
67NR = assay: Sulforhodamine B cell proliferation inhibition assay, 67NR; format: cell-based, murine; conditions: Mus musculus, 72 h, average ± SEM
Experimental: Cells were seeded (3 × 10^4 cells/well) in 48-well plates and incubated overnight (37 °C, 5% CO2). Test compounds were then exposed to cells in duplicate in serial dilution fashion and were incubated for an additional 72 h (37 °C, 5% CO2). Media were then aspirated, and cells were washed three times with cold PBS and left overnight to dry fix. […] Dyed cells were then lysed with Tris (10 mM, pH 10), and absorbance readings were recorded at 540 nm of each well. Treatment absorbances are taken as percentages of the average untreated absorbances and plotted against log(concentration) in GraphPad Prism 10 to generate effective concentration values where 50% of the cells are not proliferating (EC50).

[2] = molecular target: T1, mitochondrial pyruvate carrier (MPC) (Mus musculus, UniProt P63030+Q9D023); assay: Pyr-driven respiration in permeabilized 67NR cells; format: cell-based, murine
T1 construct: 4T1 cells were seeded (20,000 cells/well) onto Seahorse XFe96 well plates; host or cells: 4T1 murine breast cancer cells, rPFO-permeabilized
T1 sequence (P63030 1-109): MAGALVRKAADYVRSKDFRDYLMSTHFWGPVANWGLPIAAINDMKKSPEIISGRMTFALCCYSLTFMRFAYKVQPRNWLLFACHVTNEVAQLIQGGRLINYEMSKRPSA
T1 sequence (Q9D023 1-127): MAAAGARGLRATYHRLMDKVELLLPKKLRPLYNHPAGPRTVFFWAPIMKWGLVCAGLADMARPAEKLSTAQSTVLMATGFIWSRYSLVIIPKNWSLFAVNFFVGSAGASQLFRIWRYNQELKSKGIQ

in vivo = conditions: BALB/c, mouse; for bioavailability / Vd / clearance: plasma; for half-life: in vivo
Experimental: IV dosing allows for analysis under the assumption of total systemic absorption (Fig. S3A).
In a contract organization Medicilon, 35 male and 35 female BALB/c mice were randomized and put into two groups (n = 15) per sex for each route of administration (4 total groups). Extra mice were used for collection of blank plasma. […] Each time point utilized three mice per group, and each mouse had two blood draws. The blood samples were collected in K2EDTA tubes on ice, centrifuged at 6800g (6 min, 4 °C) to generate plasma samples. The plasma samples were stored below −70 °C until LC–MS/MS analysis. […] After data acquisition, noncompartmental analysis parameters were calculated by Pheonix WinNonlin 7.0.

[3] = molecular target: T1, mitochondrial pyruvate carrier (MPC); assay: Seahorse XFe96 Pyr-driven respiration in rPFO-permeabilized 4T1 cells; format: cell-based, murine; conditions: read-out: IC50, inhibition of Pyr-driven respiration
Experimental: After validating the ability of rPFO to permeabilize 4T1 cells without damaging mitochondria, we sought to investigate the ability of candidate compounds to inhibit Pyr-driven respiration in these cells (Fig. 1, D–G). In this regard, 4T1 cells were seeded in Seahorse XFe96 well plates and were incubated to reach confluence (∼18–24 h) in growth media (+serum). Growth media were then aspirated, and cells were washed with MAS buffer to remove serum and endogenous metabolic substrates. Serum- and substrate-starved cells were then incubated for equilibration in MAS buffer in a non-CO2 incubator. Inhibitors, rPFO, and substrate milieus were prepared in MAS buffer to be injected in succession to allow for real-time observation of the effects of compound-treated cultures on oxygen consumption rates (OCRs) when compared with vehicle (dimethyl sulfoxide [DMSO])-treated cells. Equilibrated intact cells were allowed to establish basal respiratory rates, followed by the injection of candidate compounds C1 to C4 at varying dose-titrated concentrations, respectively, and acute decreases in OCR were observed (Fig. 1, D–G). Compound exposure was performed in intact cells to avoid influence of rPFO on acute cellular targets. Cells were then exposed to rPFO, followed by the carbonyl cyanide-p-trifluoromethoxyphenylhydrazone (FCCP)–stimulated Pyr substrate milieu, which consisted of Pyr, malate (Mal), and dichloroacetate (DCA) to fuel uninhibited Pyr respiratory flux and maximal respiration. Mal and DCA were included to allow for continuous TCA cycle function without acetyl CoA feedback–mediated inhibition (Mal) or Pyr dehydrogenase–regulated inhibition (DCA) of Pyr uptake. Here, we observed a dose-dependent inhibition of Pyr-driven respiration in cells treated with the candidate compounds, allowing for logarithmic dose–response curves to be generated, and 50% inhibitory concentrations (IC50) to be calculated (Fig. 1, D–G). Finally, complex I and […] were injected to halt respiration and end the assay. […] In this regard, the fluoro-aminocarboxycoumarin derivative C4 has been designated as the lead candidate for further investigation.
Permeabilized cell assays were performed using rPFO as described previously. 4T1 cells were seeded (20,000 cells/well) onto Seahorse XFe96 well plates and incubated overnight in growth media at 37 °C and 5% CO2 for adherence. On the day of the assay, growth media were aspirated and replaced with MAS buffer (70 mM sucrose, 220 mM mannitol, 10 mM potassium phosphate monobasic, 5 mM magnesium chloride, 2 mM Hepes, and 1 mM EGTA) after 3X rinse of growth media to remove serum and endogenous metabolic substrates, and incubated at 37 °C in a non-CO2 incubator. Respective inhibitor and substrate milieu's were prepared in MAS buffer for port injections A–D at 8X, 9X, 10X, and 11X the target cell concentrations to account for intrinsic dilution factor of in situ injections of each port. […] Final substrate concentrations for specific tests were as follows: (5 mM Pyr , 0.5 mM Mal, 2 mM DCA; 10 mM glutamate, 0.5 mM Mal, 2 mM DCA; 10 mM succinate, 2 μM rotenone; 20 mM methyl Pyr, 5 mM Pyr, 0.5 mM Mal, and 2 mM DCA). ATP rate assays and mitochondrial stress tests were performed according to the manufacturer's (Agilent) instructions.

physchem = conditions: water
Excerpt: Starting with the carboxylic acid 24, various salt forms were generated to increase the water solubility.

Question: Which mouse body weight (67NR tumor) does the source give for CN(Cc1ccc(C(F)(F)F)cc1)c1ccc2cc(C(=O)O)c(=O)oc2c1.NC(CO)(CO)CO [C5, 1,3-dihydroxy-2-(hydroxymethyl)propan-2-aminium 7-(methyl(4-(trifluoromethyl)benzyl)amino)-2-oxo-2H-chromene-3-carboxylate] here?
Answer: Its mouse body weight is “remained stable”.

Question: What about the “effects on Pyr-driven maximal respiration in MPC-KO lines” value [1] of the same compound?
Answer: Its value is “largely diminished”.

Question: What about the EC50 (67NR) of the same compound?
Answer: Its EC50 is 94.7 ± 12.9 µM.

Question: What about the “effect on pyruvate driven respiration” value [2] of the same compound?
Answer: The value was “inhibits”.

Question: And the bioavailability (in vivo; both, po, 5 mg/kg)?
Answer: The bioavailability was roughly 100%.

Question: What about the half-life (in vivo; female, iv, 1 mg/kg) of the same compound?
Answer: The half-life was 3.15 h.

Question: And the half-life (in vivo; female, po, 5 mg/kg)?
Answer: Its half-life is 4.41 h.

Question: And the Vd (in vivo; female, iv, 1 mg/kg)?
Answer: The Vd was 6.92 L/kg.

Question: And the clearance (in vivo; female, iv, 1 mg/kg)?
Answer: The clearance was 1.6 L/h/kg.

Question: What about the bioavailability (in vivo; female, po, 5 mg/kg) of the same compound?
Answer: Its bioavailability is 125%.

Question: And the half-life (in vivo; male, iv, 1 mg/kg)?
Answer: Its half-life is 3.65 h.

Question: And the half-life (in vivo; male, po, 5 mg/kg)?
Answer: The half-life was 4.04 h.

Question: What about the Vd (in vivo; male, iv, 1 mg/kg) of the same compound?
Answer: Its Vd is 10.2 L/kg.

Question: What about the clearance (in vivo; male, iv, 1 mg/kg) of the same compound?
Answer: The clearance was 2.06 L/h/kg.

Question: And the bioavailability (in vivo; male, po, 5 mg/kg)?
Answer: The bioavailability was 124%.

Question: What about the IC50 [3] of the same compound?
Answer: The IC50 was 0.0144 ± 0.0005 µM.

Question: And the solubility (physchem)?
Answer: Its solubility is 10 mg/mL.
